Measured values from patent US8329717B2, “Pyrimidine derivatives and their use for controlling undesired plant growth” (Bayer Cropscience AG, priority 2008, dated 2012).

Experiment: logp (HCOOH), chemicophysical data
Conditions: HCOOH

Q: For Cc1ccc(C2(c3nc(N[C@@H]4CCCc5ccccc54)nc(N)c3C#N)CC2)cc1 [Example 1.85], which “logp (HCOOH)” value is on record?
A: wax-like; logp (HCOOH): 4.02; 1H-NMR (CDCl3, 400 MHZ, δ in ppm): 1.70-2.10 (br,

Q: For Cc1nc(NC2CCOc3ccc(C(C)C)cc32)nc(N)c1C#N (racemic) [Example 1.27], which “logp (HCOOH)” value is on record?
A: solid, m.p.: 158.8° C.; logp (HCOOH): 2.51; 1H-NMR (CDCl3, 400 MHZ, δ in ppm): 1.15

Q: Which “logp (HCOOH)” value does the source give for Cc1nc(NC2(C)CCCc3ccccc32)nc(N)c1C#N (racemic) [Example 1.224] here?
A: wax-like; logp (HCOOH): 3.37; 1H-NMR (CDCl3, 400 MHZ, δ in ppm): 1.80 (m, 1H, 1H

Q: For Cc1ccc2c(c1)[C@H](Nc1ncc(C#Cc3ccc(F)c(Cl)c3)c(N)n1)[C@@H](C)C2 [Example 1.248], which “logp (HCOOH)” value is on record?
A: wax-like; logp (HCOOH): 2.71; 1H-NMR (CDCl3, 400 MHZ, δ in ppm): 1.25 (d, 3H, CH3);

Q: With Cc1nc(NC2CCc3cc(Cl)ccc32)nc(N)c1C#N (racemic) [Example 1.217] as the molecule, how does the “logp (HCOOH)” value read?
A: wax-like; logp (HCOOH): 2.21; 1H-NMR (CDCl3, 400 MHZ, δ in ppm): 1.80 (m, 1H, 1H

Q: With N#Cc1c(N)nc(NC2CCCc3ccccc32)nc1C(F)(F)F (racemic) [Example 1.29] as the molecule, how does the “logp (HCOOH)” value read?
A: solid; m.p.: 205.8° C.; logp (HCOOH): 3.43; 1H-NMR (CDCl3, 400 MHZ, δ in ppm): 1.85

Q: Which “logp (HCOOH)” value does the source give for Cc1ccc2c(c1)[C@H](Nc1nc(N)cc(C(F)(F)F)n1)[C@@H](C)C2 [Example 1.214] here?
A: wax-like; logp (HCOOH): 1.59; 1H-NMR (CDCl3, 400 MHZ, δ in ppm): 1.30 (d, 3H, CH3);

Q: For COc1cccc(C#Cc2cnc(N[C@H]3c4cc(C)ccc4C[C@@H]3C)nc2N)c1 [Example 1.221], which “logp (HCOOH)” value is on record?
A: wax-like; logp (HCOOH): 1.98; 1H-NMR (CDCl3, 400 MHZ, δ in ppm): 1.25 (d, 3H, CH3);

Q: For CC(C)c1nc(N[C@@H]2CCCc3ccccc32)nc(N)c1C#N [Example 1.66], which “logp (HCOOH)” value is on record?
A: wax-like; logp (HCOOH): 3.34; 1H-NMR (CDCl3, 400 MHZ, δ in ppm): 1.25 (m, 6H,

Q: With Cc1ccc2c(c1)[C@H](Nc1nc(C)cc(N)n1)[C@@H](C)C2 [Example 1.41] as the molecule, how does the “logp (HCOOH)” value read?
A: wax-like; logp (HCOOH): 1.12; 1H-NMR (DMSO, 400 MHZ, δ in ppm): 1.15 (d, 3H, CH3);

Q: For CC(=O)OCC#Cc1cnc(N[C@H]2c3cc(C)ccc3C[C@@H]2C)nc1N [Example 1.252], which “logp (HCOOH)” value is on record?
A: wax-like; logp (HCOOH): 1.59; 1H-NMR (CDCl3, 400 MHZ, δ in ppm): 1.25 (d, 3H, CH3);

Q: For CC1(C)CC(Nc2ncc(C(F)(F)F)c(N)n2)c2cc(F)c(Cl)cc2O1 (racemic) [Example 1.241], which “logp (HCOOH)” value is on record?
A: wax-like; logp (HCOOH): 2.83; 1H-NMR (CDCl3, 400 MHZ, δ in ppm): 1.30 (s, 3H, CH3);

Q: For Cc1ccc2c(c1)[C@H](Nc1nc(N)cc(-c3ccccc3)n1)[C@@H](C)C2 [Example 1.83], which “logp (HCOOH)” value is on record?
A: wax-like; logp (HCOOH): 1.71; 1H-NMR (CDCl3, 400 MHZ, δ in ppm): 1.25 (m, 3H, CH3);

Q: For Cc1ccccc1-c1nc(N[C@@H]2CCCc3ccccc32)nc(N)c1C#N [Example 1.78], which “logp (HCOOH)” value is on record?
A: solid; logp (HCOOH): 3.41; 1H-NMR (CDCl3, 400 MHZ, δ in ppm): 1.85-2.05 (br, 4H,

Q: With CCC(O)C#Cc1cnc(N[C@H]2c3cc(C)ccc3C[C@@H]2C)nc1N (stereo partly drawn) [Example 1.251] as the molecule, how does the “logp (HCOOH)” value read?
A: wax-like; logp (HCOOH): 1.48; 1H-NMR (CDCl3, 400 MHZ, δ in ppm): 1.00 (t, 3H, CH3);

Q: For Cc1nc(N[C@@H]2CCCc3ccccc32)nc(N)c1C(=O)OC1CCCCC1 [Example 1.255], which “logp (HCOOH)” value is on record?
A: wax-like; logp (HCOOH): 2.03; 1H-NMR (CDCl3, 400 MHZ, δ in ppm): 2.10-2.65 (m,

Q: With Cc1ccc2c(c1)[C@H](Nc1nc(N)c(C#N)c(C3(C)CC3)n1)[C@@H](C)C2 [Example 1.93] as the molecule, how does the “logp (HCOOH)” value read?
A: wax-like; logp (HCOOH): 3.31; 1H-NMR (CDCl3, 400 MHZ, δ in ppm): 0.75 (m, 2H, CH2);

Q: Which “logp (HCOOH)” value does the source give for N#Cc1cnc(NC2CCc3cc(Cl)ccc32)nc1N (racemic) [Example 1.216] here?
A: wax-like; logp (HCOOH): 2.18; 1H-NMR (CDCl3, 400 MHZ, δ in ppm): 1.80 (m, 1H, 1H

Q: For CC1(c2nc(N[C@@H]3CCCc4ccccc43)nc(N)c2C#N)CC1 [Example 1.84], which “logp (HCOOH)” value is on record?
A: wax-like; logp (HCOOH): 2.63; 1H-NMR (CDCl3, 400 MHZ, δ in ppm): 0.75 (m, 2H, CH2);

Q: With C[Si](C)(C)C#Cc1cnc(N[C@@H]2CCCc3ccccc32)nc1N [Example 1.39] as the molecule, how does the “logp (HCOOH)” value read?
A: wax-like; logp (HCOOH): 1.86; 1H-NMR (CDCl3, 400 MHZ, δ in ppm): 0.25 (s, 9H, CH3);

Q: Which “logp (HCOOH)” value does the source give for CC(=O)c1cnc(N[C@H]2c3cc(C)ccc3C[C@@H]2C)nc1N [Example 1.184] here?
A: wax-like; logp (HCOOH): 1.58; 1H-NMR (CDCl3, 400 MHZ, δ in ppm): 1.30 (d, 3H, CH3);
